Measured values published in ChEMBL document CHEMBL1201862, “PubChem BioAssay data set” (2004).
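Where inhibition never reached the appropriate level, the endpoint shown equals the highest concentration tested. Otherwise, values were interpolated linearly from a five-concentration, 48-hour dose response in 96-well plates. Abbreviation: GI50, concentration required for 50% inhibition of growth.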 Activity calls are given as the source filed them. Cut-off read from the data, not from the text of the source: active = GI50 up to about 1.1 µM and inactive = higher.

Key:
Experiment in all cases: inhibition of tumour cell growth, NCI panel, 48 h
NCI-H460 = tested on: NCI-H460
BT-549 = tested on: BT-549
HCT-15 = tested on: HCT-15
Malme-3M = tested on: Malme-3M
SF-295 = tested on: SF-295
UACC-62 = tested on: UACC-62
SK-OV-3 = tested on: SK-OV-3
SK-MEL-5 = tested on: SK-MEL-5
DU-145 = tested on: DU-145
SN12C = tested on: SN12C
ACHN = tested on: ACHN
U-251 = tested on: U-251
M14 = tested on: M14
UACC-257 = tested on: UACC-257
NCI-H522 = tested on: NCI-H522
SF-268 = tested on: SF-268
SK-MEL-2 = tested on: SK-MEL-2
KM12 = tested on: KM12
HCC 2998 = tested on: HCC 2998

Row | SMILES | GI50 (NCI-H460) | GI50 (BT-549) | GI50 (HCT-15) | GI50 (Malme-3M) | GI50 (SF-295) | GI50 (UACC-62) | GI50 (SK-OV-3) | GI50 (SK-MEL-5) | GI50 (DU-145) | GI50 (SN12C) | GI50 (ACHN) | GI50 (U-251) | GI50 (M14) | GI50 (UACC-257) | GI50 (NCI-H522) | GI50 (SF-268) | GI50 (SK-MEL-2) | GI50 (KM12) | GI50 (HCC 2998)
1 | CC(=O)Nc1ccc2c(C(=O)O)c(C)c(O)nc2n1 | > 100 µM (inactive) | > 100 µM (inactive) | > 100 µM | 95.7 µM (inactive) | > 100 µM (inactive) | > 100 µM (inactive) | > 100 µM (inactive) | > 100 µM (inactive) | > 100 µM (inactive) | > 100 µM (inactive) | > 100 µM (inactive) | 46.9 µM (inactive) | > 100 µM (inactive) | > 100 µM (inactive) | 32.5 µM (inactive) | 57.7 µM (inactive) | > 100 µM (inactive) | > 100 µM (inactive) | –
2 | CN(C)C(=O)N1N[C@H](c2ccccc2)[C@@H]1c1ccccc1 | – | – | > 100 µM | > 100 µM (inactive) | 72.3 µM (inactive) | > 100 µM (inactive) | > 100 µM (inactive) | > 100 µM (inactive) | > 100 µM (inactive) | > 100 µM (inactive) | > 100 µM (inactive) | > 100 µM (inactive) | > 100 µM (inactive) | > 100 µM (inactive) | > 100 µM (inactive) | – | > 100 µM (inactive) | > 100 µM (inactive) | > 100 µM (inactive)
3 | Cn1c2ccccc2c2c(-c3ccccc3)[n+]3ccccc3nc21 | 21.9 µM (inactive) | 23 µM (inactive) | > 100 µM | 24.3 µM (inactive) | 46.3 µM (inactive) | 21.2 µM (inactive) | > 100 µM (inactive) | 16.8 µM (inactive) | 53.3 µM (inactive) | 25.8 µM (inactive) | 98.6 µM (inactive) | 24.8 µM (inactive) | 18.1 µM (inactive) | 18.4 µM (inactive) | 25.4 µM (inactive) | 18.5 µM (inactive) | 20.2 µM (inactive) | 17.1 µM (inactive) | –
4 | O=C(/C=C\c1ccccc1)Oc1ccc(/C=C2\CCCCC2=O)cc1 | 73.5 µM (inactive) | – | 23.3 µM | 38.9 µM (inactive) | 41.2 µM (inactive) | 0.1 µM (active) | – | 18.9 µM (inactive) | > 100 µM (inactive) | 55.3 µM (inactive) | 37.2 µM (inactive) | 30.4 µM (inactive) | 40.6 µM (inactive) | 16.6 µM (inactive) | 48 µM (inactive) | 25.2 µM (inactive) | 39.2 µM (inactive) | 44 µM (inactive) | 47.3 µM (inactive)
5 | O=[N+]([O-])c1ccc(CSCc2ccc(Cl)cc2)cc1 | > 100 µM (inactive) | > 100 µM (inactive) | > 100 µM | > 100 µM (inactive) | > 100 µM (inactive) | > 100 µM (inactive) | > 100 µM (inactive) | > 100 µM (inactive) | > 100 µM (inactive) | > 100 µM (inactive) | > 100 µM (inactive) | > 100 µM (inactive) | > 100 µM (inactive) | > 100 µM (inactive) | 20 µM (inactive) | > 100 µM (inactive) | > 100 µM (inactive) | > 100 µM (inactive) | –
6 | O=C(O)CSCC(=O)O | > 100 µM (inactive) | > 100 µM (inactive) | > 100 µM | > 100 µM (inactive) | > 100 µM (inactive) | > 100 µM (inactive) | – | > 100 µM (inactive) | > 100 µM (inactive) | > 100 µM (inactive) | > 100 µM (inactive) | > 100 µM (inactive) | > 100 µM (inactive) | > 100 µM (inactive) | > 100 µM (inactive) | > 100 µM (inactive) | > 100 µM (inactive) | > 100 µM (inactive) | –
7 | N#Cc1c2ccc([N+](=O)[O-])cc2c(=O)n2c1sc1ccc(C(F)(F)F)cc12 | > 100 µM (inactive) | > 100 µM (inactive) | > 100 µM | > 100 µM (inactive) | > 100 µM (inactive) | – | > 100 µM (inactive) | > 100 µM (inactive) | > 100 µM (inactive) | > 100 µM (inactive) | > 100 µM (inactive) | > 100 µM (inactive) | > 100 µM (inactive) | > 100 µM (inactive) | > 100 µM (inactive) | > 100 µM (inactive) | – | > 100 µM (inactive) | –
8 | COc1ccc(/C=C/C(=O)c2nc3ccccc3[nH]2)cc1 | 20.5 µM (inactive) | 22.5 µM (inactive) | 10.9 µM | 19 µM (inactive) | 21 µM (inactive) | 17.6 µM (inactive) | 21.2 µM (inactive) | 17.9 µM (inactive) | 17.3 µM (inactive) | 25.7 µM (inactive) | 15.1 µM (inactive) | 13.8 µM (inactive) | 20.3 µM (inactive) | 22 µM (inactive) | 13.6 µM (inactive) | 15.2 µM (inactive) | 28.6 µM (inactive) | 4.62 µM (inactive) | –
